Assay results published in patent US20230295152A1 (SENDA BIOSCIENCES, INC., priority 2019, published 2023).
Read-outs that look alike come from different tables or passages of the source.

Assay: Caco-2 Permeability Assay
Format: in vitro ADME
Details: human
Procedure: Preparation of Caco-2 Cells: 50 μL and 25 mL of cell culture medium were added to each well of the Transwell insert and reservoir, respectively. The HTS transwell plates were incubated at 37° C., 5% CO2 for 1 hour before cell seeding. Caco-2 cells were diluted to 6.86×10^5 cells/mL with culture medium and 50 μL of cell suspension were dispensed into the filter well of the 96-well HTS Transwell plate. Cells were cultivated for 14-18 days in a cell culture incubator at 37° C., 5% CO2, 95% relative humidity. Cell culture medium was replaced every other day, beginning no later than 24 hours after initial plating.
Assessment of Cell Monolayer Integrity: Medium was removed from the reservoir and each Transwell insert and replaced with prewarmed fresh culture medium. Transepithelial electrical resistance (TEER) across the monolayer was measured using Millicell Epithelial Volt-Ohm measuring system (Millipore, USA). The Plate was returned to the incubator once the measurement was done. The TEER value was calculated according to the following equation:
TEER measurement(ohms)×Area of membrane(cm^2)=TEER value(ohm·cm^2)
TEER value should be greater than 230 ohm·cm^2, which indicates the well-qualified Caco-2 monolayer.
Preparation of Solutions: 2 mM stock solutions in DMSO of control compounds were prepared and diluted with HBSS (10 mM HEPES, pH 7.4) to get 10 μM working solution. 0.2 mM stock solutions of test compounds in DMSO were prepared and diluted with HBSS (10 mM HEPES, pH 7.4 with 0.5% BSA) to get 1 μM working solution. Metoprolol, erythromycin and cimetidine were used as control compounds.
Performing the Drug Transport Assay: The Caco-2 plate was removed from the incubator. The monolayer was washed twice with pre-warmed HBSS (10 mM HEPES, pH 7.4). The plate was incubated at 37° C. for 30 minutes. To determine the rate of drug transport in the apical to basolateral direction, 125 μL of the working solution was added to the Transwell insert (apical compartment). A 50 μL sample was transferred immediately from the apical compartment to 200 μL of acetonitrile containing IS (100 nM alprazolam, 200 nM Caffeine and 100 nM tolbutamide) in a new 96-well plate as the initial donor sample (A-B) and it was vortexed at 1000 rpm for 10 minutes. The wells in the receiver plate (basolateral compartment) were filled with 235 μL of transport buffer. To determine the rate of drug transport in the basolateral to apical direction, 285 μL of the working solution were added to the receiver plate wells (basolateral compartment). A 50 μL sample was transferred immediately from the basolateral compartment to 200 μL of acetonitrile containing IS (100 nM alprazolam, 200 nM Caffeine and 100 nM tolbutamide) in a new 96-well plate as the initial donor sample (B-A) and it was vortexed at 1000 rpm for 10 minutes. The Transwell insert (apical compartment) was filled with 75 μL of transport buffer. The apical to basolateral direction and the basolateral to apical direction need to be done at the same time. The plates were incubated at 37° C. for 2 hours. At the end of the incubation, 50 μL samples from donor sides (apical compartment for Ap→B1 flux, and basolateral compartment for B1→Ap) and receiver sides (basolateral compartment for Ap→B1 flux, and apical compartment for B1→Ap) were transferred to wells of a new 96-well plate, followed by the addition of 4 volume of acetonitrile containing IS (100 nM alprazolam, 200 nM Caffeine and 100 nM tolbutamide). Samples were vortexed for 10 minutes, 50 μL samples were transferred to wells of a new 96-well plate, followed by the addition of 50 μL Hepes and 200 μL IS. A11 samples were vortexed for 10 minutes, and then centrifuged at 3,220 g for 40 minutes. An aliquot of 150 μL of the supernatant was mixed with an appropriate volume of ultra-pure water before LC-MS/MS analysis.
Data analysis: All calculations were carried out using Microsoft Excel. Peak areas were determined from extracted ion chromatograms. […]

[1] = Caco-2, pH 7.4, apical to basolateral, read-out: Caco2 Papp (AB)
[2] = Caco-2, pH 7.4, basolateral to apical, read-out: Caco2 Papp (BA)
[3] = Caco-2, pH 7.4, +0.5% BSA, read-out: Caco 2 apparent permeability Papp (A−B)
[4] = Caco-2, pH 7.4, +0.5% BSA, read-out: Caco 2 apparent permeability Papp (B−A)

Row | SMILES | Papp A→B at 2 h, 1 μM [1] | Papp B→A at 2 h, 1 μM [2] | Papp A→B at 2 h, 1 μM [3] | Papp B→A at 2 h, 1 μM [4]
1 | C[C@@H](CO)n1cnc2c(-c3cncc(F)c3)nc(-c3ccc(OC(F)(F)F)cc3)cc2c1=O [Compound 1, (S)-8-(5-fluoropyridin-3-yl)-3-(1-hydroxypropan-2-yl)-6-(4-(trifluoromethoxy)phenyl)pyrido[3,4-d]pyrimidin-4(3H)-one] | 2 to 10 ×10⁻⁶ cm/s | < 2 ×10⁻⁶ cm/s |  | 
2 | C[C@@H](CO)n1cnc2c(-c3cccc(F)c3)nc(-c3ccc(Cl)cc3)cc2c1=O [Compound 7] | < 2 ×10⁻⁶ cm/s | < 2 ×10⁻⁶ cm/s |  | 
3 | C[C@@H](CO)n1cnc2c(-c3cccc(F)c3)nc(-c3ccc(C(F)(F)F)nc3)cc2c1=O [Compound 8] | 2 to 10 ×10⁻⁶ cm/s | 2 to 10 ×10⁻⁶ cm/s |  | 
4 | CC(C)(O)Cn1cnc2c(-c3cccnc3)nc(-c3ccc(C(F)(F)F)nc3)cc2c1=O [Compound 9] | 2 to 10 ×10⁻⁶ cm/s | > 10 ×10⁻⁶ cm/s | 9.6 ×10⁻⁶ cm/s | 25 ×10⁻⁶ cm/s
5 | C[C@@H](CO)n1cnc2c(-c3cccnc3)nc(-c3ccc(C(F)(F)F)nc3)cc2c1=O [Compound 12] | 2 to 10 ×10⁻⁶ cm/s | > 10 ×10⁻⁶ cm/s |  | 
6 | CC(C)(O)Cn1cnc2c(-c3cccnc3)nc(-c3ccc(C(F)(F)F)cc3)cc2c1=O [Compound 16] | 2 to 10 ×10⁻⁶ cm/s | 2 to 10 ×10⁻⁶ cm/s |  | 
7 | Cc1ccc(-c2cc3c(=O)n([C@@H](C)CO)cnc3c(-c3cccnc3)n2)cc1 [Compound 17, (S)-3-(1-hydroxypropan-2-yl)-8-(pyridin-3-yl)-6-(p-tolyl)pyrido[3,4-d]pyrimidin-4(3H)-one] | > 10 ×10⁻⁶ cm/s | 2 to 10 ×10⁻⁶ cm/s |  | 
8 | CC(C)(O)Cn1cnc2c(-c3cccnc3)nc(-c3ccc(Cl)cc3)cc2c1=O [Compound 18] | 2 to 10 ×10⁻⁶ cm/s | 2 to 10 ×10⁻⁶ cm/s |  | 
9 | Cn1cc(-c2nc(-c3ccc(Cl)cc3)cc3c(=O)n(CC(C)(C)O)cnc23)cn1 [Compound 21] | 2 to 10 ×10⁻⁶ cm/s | < 2 ×10⁻⁶ cm/s |  | 
10 | C[C@@H](CO)n1cnc2c(-c3cccnc3)nc(-c3ccc(OC(F)(F)F)cc3)cc2c1=O [Compound 22] | 2 to 10 ×10⁻⁶ cm/s | 2 to 10 ×10⁻⁶ cm/s |  | 
11 | C[C@@H](CO)n1cnc2c(-c3cnn(C)c3)nc(-c3ccc(Cl)cc3)cc2c1=O [Compound 27] | 2 to 10 ×10⁻⁶ cm/s | < 2 ×10⁻⁶ cm/s |  | 
12 | C[C@H](n1cnc2c(-c3cnn(C)c3)nc(-c3ccc(Cl)cc3)cc2c1=O)C(C)(C)O [Compound 30] | 2 to 10 ×10⁻⁶ cm/s | < 2 ×10⁻⁶ cm/s |  | 
13 | C[C@@H](n1cnc2c(-c3cnn(C)c3)nc(-c3ccc(Cl)cc3)cc2c1=O)C(C)(C)O [Compound 31] | 2 to 10 ×10⁻⁶ cm/s | < 2 ×10⁻⁶ cm/s |  | 
14 | C[C@@H](n1cnc2c(-c3cccnc3)nc(-c3ccc(Cl)cc3)cc2c1=O)C(C)(C)O [Compound 33] | 2 to 10 ×10⁻⁶ cm/s | 2 to 10 ×10⁻⁶ cm/s |  | 
15 | C[C@H](n1cnc2c(-c3cccnc3)nc(-c3cccnc3)cc2c1=O)C(C)(C)O [Compound 34] | 2 to 10 ×10⁻⁶ cm/s | > 10 ×10⁻⁶ cm/s |  | 
16 | C[C@@H](CO)n1cnc2c(-n3ccnc3)nc(-c3ccc(OC(F)(F)F)cc3)cc2c1=O [Compound 44, (S)-3-(1-hydroxypropan-2-yl)-8-(1H-imidazol-1-yl)-6-(4-(trifluoromethoxy)-phenyl)pyrido[3,4-d]pyrimidin-4(3H)-one] | 2 to 10 ×10⁻⁶ cm/s | 2 to 10 ×10⁻⁶ cm/s |  | 
17 | C[C@@H](CO)n1cnc2c(-c3cccnc3)nc(-c3ccc(C(F)(F)F)cn3)cc2c1=O [Compound 46, (S)-3-(1-hydroxypropan-2-yl)-8-(pyridin-3-yl)-6-(5-(trifluoromethyl)pyridin-2-yl)pyrido[3,4-d]pyrimidin-4(3H)-one] | > 10 ×10⁻⁶ cm/s | > 10 ×10⁻⁶ cm/s | 12.6 ×10⁻⁶ cm/s | 16.4 ×10⁻⁶ cm/s
18 | C[C@@H](CO)n1cnc2c(-c3cccc(F)c3)nc(-c3ccc(C(F)(F)F)cn3)cc2c1=O [Compound 47, (S)-8-(3-fluorophenyl)-3-(1-hydroxypropan-2-yl)-6-(5-(trifluoromethyl)pyridin-2-yl)pyrido[3,4-d]pyrimidin-4(3H)-one] | < 2 ×10⁻⁶ cm/s | < 2 ×10⁻⁶ cm/s |  | 
19 | Cn1cc(-c2nc(-c3ccc(C(F)(F)F)nc3)cc3c(=O)n(CC(C)(C)O)cnc23)cn1 [Compound 60] | > 10 ×10⁻⁶ cm/s | 2 to 10 ×10⁻⁶ cm/s |  | 
20 | C[C@@H](CO)n1cnc2c(-c3cccnc3)nc(-c3ccc(C4CC4)nc3)cc2c1=O [Compound 74] | 2 to 10 ×10⁻⁶ cm/s | > 10 ×10⁻⁶ cm/s |  | 
21 | Cn1cc(-c2nc(-c3ccc(C(F)(F)F)cn3)cc3c(=O)n(CC(C)(C)O)cnc23)cn1 [Compound 103, 3-(2-hydroxy-2-methylpropyl)-8-(1-methyl-1H-pyrazol-4-yl)-6-(5-(trifluoromethyl)pyridin-2-yl)pyrido[3,4-d]pyrimidin-4(3H)-one] | 2 to 10 ×10⁻⁶ cm/s | < 2 ×10⁻⁶ cm/s |  | 
22 | CC(C)(O)Cn1cnc2c(-c3cccnc3)nc(-c3ccc(C(F)(F)F)cn3)cc2c1=O [Compound 105] | > 10 ×10⁻⁶ cm/s | 2 to 10 ×10⁻⁶ cm/s |  | 
